In brackets after ≈: the same amount, converted by molar mass.
How the values were obtained:
CCRF-CEM [1] = assay: Representative inhibition values against CCRF-CEM cell cultures; format: cell-based; settings: Homo sapiens
CCRF-CEM [2] = assay: Reversal of cytotoxicity by added metabolites (hypoxanthine, AICA, thymidine, leucovorin); format: cell-based, human

| Structure (SMILES) | IC50 (CCRF-CEM [1]) | Cytotoxicity reversed by addition of aminoimidazolecarboxamide (AICA) (CCRF-CEM [2]; addition of aminoimidazolecarboxamide (AICA)) | Cytotoxicity reversed by addition of hypoxanthine (CCRF-CEM [2]; addition of hypoxanthine) | Cytotoxicity reversed by addition of thymidine (CCRF-CEM [2]; addition of thymidine) |
| --- | --- | --- | --- | --- |
| Nc1nc(O)c2c(CCc3ccc(C(=O)N[C@@H](CCC(=O)O)C(=O)O)c(F)c3)c[nH]c2n1 | 0.008 µg/mL (≈ 0.018 µM) |  |  |  |
| Nc1nc(O)c2c(CCc3ccc(C(=O)N[C@@H](CCC(=O)O)C(=O)O)cc3F)c[nH]c2n1 | 0.019 µg/mL (≈ 0.0427 µM) |  |  |  |
| Nc1nc2[nH]cc(CCc3ccc(C(=O)N[C@@H](CCC(=O)O)C(=O)O)cc3)c2c(=O)[nH]1 | 0.004 µg/mL (≈ 0.00936 µM) | not reversed | not reversed | reversed |

Continued, in another order:

| IC50 (CCRF-CEM [1]) | Structure (SMILES) | Cytotoxicity reversed by addition of aminoimidazolecarboxamide (AICA) (CCRF-CEM [2]; addition of aminoimidazolecarboxamide (AICA)) | Cytotoxicity reversed by addition of hypoxanthine (CCRF-CEM [2]; addition of hypoxanthine) | Cytotoxicity reversed by addition of thymidine (CCRF-CEM [2]; addition of thymidine) |
| --- | --- | --- | --- | --- |
| > 20 µg/mL | Nc1nc(O)c2c(CCc3cccc(F)c3)c[nH]c2n1 |  |  |  |
| > 20 µg/mL | Nc1nc(O)c2c(CCc3ccc(C(=O)O)cc3)c[nH]c2n1 |  |  |  |
| > 20 µg/mL | COc1ccc(CCc2c[nH]c3nc(N)nc(O)c23)cc1 [3-[2-(4-methoxyphenyl)ethyl]-4-hydroxy-6-aminopyrrolo[2,3-d]pyrimidine] |  |  |  |
